Results reported in ChEMBL document CHEMBL1201862, “PubChem BioAssay data set” (2004).
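Compound exposure: 48 hours, 5 concentrations, 96-well plates. Abbreviation: GI50, concentration required for 50% inhibition of growth.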 Activity calls are given as the source filed them. Cut-off read from the data, not from the text of the source: active = GI50 up to about 1.1 µM and inactive = higher. Residues, ends and D or L forms follow the SMILES beside them.

Tests used:
Experiment in all cases: growth of human tumour cells (NCI), 48 h
SW-620 = tested on: SW-620
COLO 205 = tested on: COLO 205
SNB-19 = tested on: SNB-19
SF-268 = tested on: SF-268
SF-539 = tested on: SF-539
MDA-N = tested on: MDA-N
HCT-15 = tested on: HCT-15
NCI/ADR-RES = tested on: NCI/ADR-RES
U-251 = tested on: U-251
UACC-62 = tested on: UACC-62
OVCAR-4 = tested on: OVCAR-4
DU-145 = tested on: DU-145
M14 = tested on: M14
T47D = tested on: T47D
SK-MEL-28 = tested on: SK-MEL-28
A498 = tested on: A498
MDA-MB-231 = tested on: MDA-MB-231
K562 = tested on: K562
PC-3 = tested on: PC-3
ACHN = tested on: ACHN
EKVX = tested on: EKVX
OVCAR-3 = tested on: OVCAR-3
786-0 = tested on: 786-0
HOP-92 = tested on: HOP-92
MOLT-4 = tested on: MOLT-4
UO-31 = tested on: UO-31
CCRF-CEM = tested on: CCRF-CEM
SR = tested on: SR
SK-MEL-2 = tested on: SK-MEL-2
Hs-578T = tested on: Hs-578T
KM12 = tested on: KM12
BT-549 = tested on: BT-549
OVCAR-5 = tested on: OVCAR-5
IGROV-1 = tested on: IGROV-1
HOP-62 = tested on: HOP-62
RPMI-8226 = tested on: RPMI-8226
HCT-116 = tested on: HCT-116
SN12C = tested on: SN12C
SK-OV-3 = tested on: SK-OV-3
MDA-MB-435 = tested on: MDA-MB-435
HL-60 = tested on: HL-60
LOX IMVI = tested on: LOX IMVI
CAKI-1 = tested on: CAKI-1
NCI-H23 = tested on: NCI-H23
SF-295 = tested on: SF-295
NCI-H226 = tested on: NCI-H226
SK-MEL-5 = tested on: SK-MEL-5
NCI-H522 = tested on: NCI-H522
HT-29 = tested on: HT-29
MCF7 = tested on: MCF7
A549 = tested on: A549
Malme-3M = tested on: Malme-3M
TK-10 = tested on: TK-10
OVCAR-8 = tested on: OVCAR-8
UACC-257 = tested on: UACC-257
SNB-75 = tested on: SNB-75
HCC 2998 = tested on: HCC 2998
NCI-H460 = tested on: NCI-H460
RXF 393 = tested on: RXF 393

CCC(C)C(NC(=O)C(CC(C)C)NC(=O)CNC(=O)C(NC(=O)C1CCCN1C(=O)C(CC(C)C)NC(=O)C(N)Cc1ccccc1)C(C)CC)C(=O)NC(CC(C)C)C(N)=O (stereo not drawn) (H-FLPIGLIL-NH2; configuration not given here)
GI50 (SW-620): > 75 µM (inactive)
GI50 (COLO 205): > 75 µM (inactive)
GI50 (SNB-19): > 75 µM (inactive)
GI50 (SF-268): > 75 µM (inactive)
GI50 (SF-539): > 75 µM (inactive)
GI50 (MDA-N): > 75 µM (inactive)
GI50 (HCT-15): > 75 µM
GI50 (NCI/ADR-RES): > 75 µM (inactive)
GI50 (U-251): > 75 µM (inactive)
GI50 (UACC-62): > 75 µM (inactive)
GI50 (OVCAR-4): > 75 µM (inactive)
GI50 (DU-145): > 75 µM (inactive)
GI50 (M14): > 75 µM (inactive)
GI50 (T47D): > 75 µM (inactive)
GI50 (SK-MEL-28): > 75 µM (inactive)
GI50 (A498): > 75 µM (inactive)
GI50 (MDA-MB-231): > 75 µM (inactive)
GI50 (K562): > 75 µM (inactive)
GI50 (PC-3): > 75 µM (inactive)
GI50 (ACHN): > 75 µM (inactive)
GI50 (EKVX): > 75 µM (inactive)
GI50 (OVCAR-3): > 75 µM (inactive)
GI50 (786-0): > 75 µM (inactive)
GI50 (HOP-92): > 75 µM (inactive)
GI50 (MOLT-4): > 75 µM (inactive)
GI50 (UO-31): > 75 µM (inactive)
GI50 (CCRF-CEM): > 75 µM (inactive)
GI50 (SR): > 75 µM (inactive)
GI50 (SK-MEL-2): > 75 µM (inactive)
GI50 (Hs-578T): > 75 µM (inactive)
GI50 (KM12): > 75 µM (inactive)
GI50 (BT-549): > 75 µM (inactive)
GI50 (OVCAR-5): > 75 µM (inactive)
GI50 (IGROV-1): > 75 µM (inactive)
GI50 (HOP-62): > 75 µM (inactive)
GI50 (RPMI-8226): > 75 µM (inactive)
GI50 (HCT-116): > 75 µM (inactive)
GI50 (SN12C): > 75 µM (inactive)
GI50 (SK-OV-3): > 75 µM (inactive)
GI50 (MDA-MB-435): > 75 µM (inactive)
GI50 (HL-60): > 75 µM (inactive)
GI50 (LOX IMVI): > 75 µM (inactive)
GI50 (CAKI-1): > 75 µM (inactive)
GI50 (NCI-H23): > 75 µM (inactive)
GI50 (SF-295): > 75 µM (inactive)
GI50 (NCI-H226): > 75 µM (inactive)
GI50 (SK-MEL-5): > 75 µM (inactive)
GI50 (NCI-H522): > 75 µM (inactive)
GI50 (HT-29): > 75 µM (inactive)
GI50 (MCF7): > 75 µM (inactive)
GI50 (A549): > 75 µM (inactive)
GI50 (Malme-3M): > 75 µM (inactive)
GI50 (TK-10): > 75 µM (inactive)
GI50 (OVCAR-8): > 75 µM (inactive)
GI50 (UACC-257): > 75 µM (inactive)

CC1=NN(c2ccccc2)C2(C1)C(Cl)C(=O)N2c1nc2ccccc2s1 (stereo not drawn)
GI50 (SW-620): 29.9 µM (inactive)
GI50 (COLO 205): 27.3 µM (inactive)
GI50 (SNB-19): 43 µM (inactive)
GI50 (SF-268): 29.9 µM (inactive)
GI50 (MDA-N): 35.6 µM (inactive)
GI50 (HCT-15): 29.9 µM
GI50 (SNB-75): 80.5 µM (inactive)
GI50 (NCI/ADR-RES): 23.9 µM (inactive)
GI50 (U-251): 26 µM (inactive)
GI50 (UACC-62): 34.4 µM (inactive)
GI50 (OVCAR-4): 85.1 µM (inactive)
GI50 (DU-145): 36.2 µM (inactive)
GI50 (M14): 33.2 µM (inactive)
GI50 (T47D): 31.5 µM (inactive)
GI50 (SK-MEL-28): 36.6 µM (inactive)
GI50 (A498): 53 µM (inactive)
GI50 (MDA-MB-231): 28.8 µM (inactive)
GI50 (K562): 33.6 µM (inactive)
GI50 (PC-3): 37.1 µM (inactive)
GI50 (ACHN): 46.9 µM (inactive)
GI50 (EKVX): 30.6 µM (inactive)
GI50 (OVCAR-3): 15.8 µM (inactive)
GI50 (786-0): 31.9 µM (inactive)
GI50 (HOP-92): 73.6 µM (inactive)
GI50 (MOLT-4): 20.7 µM (inactive)
GI50 (UO-31): 26.6 µM (inactive)
GI50 (CCRF-CEM): 14.9 µM (inactive)
GI50 (HCC 2998): 60.4 µM (inactive)
GI50 (SR): 22.9 µM (inactive)
GI50 (SK-MEL-2): 23.8 µM (inactive)
GI50 (Hs-578T): 50.5 µM (inactive)
GI50 (KM12): 49.5 µM (inactive)
GI50 (BT-549): 34.1 µM (inactive)
GI50 (OVCAR-5): 41.7 µM (inactive)
GI50 (IGROV-1): 16.6 µM (inactive)
GI50 (HOP-62): 25.2 µM (inactive)
GI50 (RPMI-8226): 18.1 µM (inactive)
GI50 (NCI-H460): 31 µM (inactive)
GI50 (HCT-116): 21.5 µM (inactive)
GI50 (SN12C): 23.5 µM (inactive)
GI50 (SK-OV-3): 32.1 µM (inactive)
GI50 (MDA-MB-435): 40.6 µM (inactive)
GI50 (HL-60): 21.1 µM (inactive)
GI50 (LOX IMVI): 13.5 µM (inactive)
GI50 (CAKI-1): 66.7 µM (inactive)
GI50 (NCI-H23): 24.2 µM (inactive)
GI50 (SF-295): 28.8 µM (inactive)
GI50 (NCI-H226): 15.1 µM (inactive)
GI50 (SK-MEL-5): 20.8 µM (inactive)
GI50 (NCI-H522): 21.6 µM (inactive)
GI50 (RXF 393): 23.8 µM (inactive)
GI50 (HT-29): 34.9 µM (inactive)
GI50 (MCF7): 43.9 µM (inactive)
GI50 (A549): 35.2 µM (inactive)
GI50 (Malme-3M): 42.2 µM (inactive)
GI50 (TK-10): > 100 µM (inactive)
GI50 (OVCAR-8): 36.1 µM (inactive)
GI50 (UACC-257): 80.2 µM (inactive)
